According to patent US7867749B2, “Nematode phosphoethanolamine N-methyltransferase-like sequences” (priority 2006, dated 2011):
Read-outs that look alike come from different tables or passages of the source.

Key:
A. ellesmerensis = experiment: Nematicidal activity against other nematodes; format: in vivo, Acrobiloides ellesmerensis
Cephalobus sp. = experiment: Nematicidal activity against other nematodes; format: in vivo
M. javanica = experiment: Nematicidal activity against plant parasites, J2 larvae soak; format: in vivo, Meloidogyne javanica; details: 15 mM; J2 larvae soaked 48 hours
Procedure: (§1) The ethanolamine-like compounds mentioned above are also nematicidal against the plant parasites Meloidogyne incongnita and Meloidogyne javanica. Between 25 and 50 J2 stage larvae were soaked in the compounds for 48 hours at the indicated concentrations. After the treatment, the larvae were moved to an agar plate containing NGM. Worms that crawl away from the application spot are scored as alive while those that remain at the application spot are scored as dead. The three compounds that were nematicidal against C. elegans were also nematicidal against M. incognita and M. javanica

C. elegans [1] = experiment: Nematicidal activity of ethanolamine-like compounds against C. elegans; format: in vivo, Caenorhabditis elegans; details: P0 L4 larva; for F1 PHENOTYPE: 23° C.; for nematicidal activity against C. elegans: various concentrations
M. incognita = format: in vivo, Meloidogyne incongnita; details: J2 larvae soaked 48 hours
Procedure: as §1

C. elegans [2] = experiment: Chemical rescue of the PEAMT1 RNAi-generated phenotype (feeding); format: in vivo, Caenorhabditis elegans; details: for rescue of PEAMT1 mutants (RNAi-generated): 5 mM; for suppression of PEAMT1 larval lethal RNAi phenotype: chemical complementation, concentration not given
C. elegans [3] = experiment: Chemical rescue of the PEAMT2 RNAi-generated phenotype (feeding); format: in vivo, Caenorhabditis elegans; details: for rescue of PEAMT2 RNAi phenotype: chemical complementation, singly or in combination, concentration not given
[4] = target: T1, C. elegans PEAMT2 (DIV3202) (Caenorhabditis elegans, UniProt Q22993); experiment: Km determination, radiochemical PEAMT assay; format: biochemical; details: 118 nM DIV3202H+
T1 sequence (Q22993 1-437): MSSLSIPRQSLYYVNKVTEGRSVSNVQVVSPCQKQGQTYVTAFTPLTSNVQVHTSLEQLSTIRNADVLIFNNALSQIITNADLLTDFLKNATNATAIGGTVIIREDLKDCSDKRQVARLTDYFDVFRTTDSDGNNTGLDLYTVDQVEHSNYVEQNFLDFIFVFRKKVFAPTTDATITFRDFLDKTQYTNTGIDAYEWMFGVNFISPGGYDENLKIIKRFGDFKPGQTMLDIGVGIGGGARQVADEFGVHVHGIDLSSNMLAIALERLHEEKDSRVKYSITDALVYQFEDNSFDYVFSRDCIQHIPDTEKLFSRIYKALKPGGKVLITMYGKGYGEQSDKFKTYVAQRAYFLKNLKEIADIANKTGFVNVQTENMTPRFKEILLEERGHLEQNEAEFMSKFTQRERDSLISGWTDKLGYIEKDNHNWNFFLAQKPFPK

[5] = tested on: everted hamster jejunal and ileal segments; details: cited from earlier work
[6] = tested on: isolated intestinal epithelial cells; details: cited from earlier work
[7] = target: T2, C. elegans PEAMT1 (DIV3441) (Caenorhabditis elegans, UniProt Q23552); experiment: Km determination, radiochemical PEAMT assay; format: biochemical
T2 construct: HIS tag (pET28a) (N); made in house; host or cells: bacterial culture, IPTG-induced pET28a
T2 sequence (Q23552 1-475): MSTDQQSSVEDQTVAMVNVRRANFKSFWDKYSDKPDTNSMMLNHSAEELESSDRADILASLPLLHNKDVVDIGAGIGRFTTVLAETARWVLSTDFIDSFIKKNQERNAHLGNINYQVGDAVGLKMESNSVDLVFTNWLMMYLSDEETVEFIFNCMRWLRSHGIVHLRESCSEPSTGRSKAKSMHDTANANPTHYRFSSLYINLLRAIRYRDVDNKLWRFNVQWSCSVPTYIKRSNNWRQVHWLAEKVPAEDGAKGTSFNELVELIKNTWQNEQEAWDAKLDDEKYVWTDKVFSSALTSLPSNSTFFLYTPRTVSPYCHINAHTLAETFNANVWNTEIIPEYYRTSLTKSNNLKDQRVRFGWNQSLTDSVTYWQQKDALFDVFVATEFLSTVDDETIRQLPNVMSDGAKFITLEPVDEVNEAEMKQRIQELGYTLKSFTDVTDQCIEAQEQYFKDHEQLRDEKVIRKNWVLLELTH

[8] = P0 L4, 5 or 10 mM in plate media

## CC(C)(C)NCCO [2-(tert-butylamino)ethanol]
A. ellesmerensis; 10 mM
  F1 PHENOTYPE: L1/L2 arrest/lethality
Cephalobus sp.; 10 mM
  F1 PHENOTYPE: L1/L2 arrest/lethality
M. javanica
  % DEAD WORMS: 50%
C. elegans [1]; 10 mM
  F1 PHENOTYPE: L1/L2 arrest/lethality
C. elegans [1]
  nematicidal activity against C. elegans: showed nematicidal activity
M. incognita; 5 mM
  % DEAD WORMS: 50%

## NCC(O)c1ccccc1 (stereo not drawn) [2-amino-1-phenylethanol]
C. elegans [1]; 25 mM
  F1 PHENOTYPE: Wild-type development
C. elegans [1]
  nematicidal activity against C. elegans: no nematicidal effect

## N[C@@H](CO)Cc1ccccc1 [D-phenylalaninol]
A. ellesmerensis; 12.5 mM
  F1 PHENOTYPE: L1/L2 arrest/lethality
Cephalobus sp.; 12.5 mM
  F1 PHENOTYPE: L1/L2 arrest/lethality
C. elegans [1]; 10 mM
  F1 PHENOTYPE: L1/L2 arrest/lethality
C. elegans [1]
  nematicidal activity against C. elegans: showed nematicidal activity
M. incognita; 25 mM
  % DEAD WORMS: 100%

## CN(C)CCO [DME, dimethylethanolamine]
C. elegans [2]
  rescue of PEAMT1 mutants (RNAi-generated): rescued
C. elegans [2]; Five mM
  rescue of sterility associated with PEAMT1 RNAi: rescues the sterility
C. elegans [2]; P0 Dauer, 10 mM in plate media
  F1 phenotype, PEAMT1 dsRNA: Fertile adults
C. elegans [2]; P0 L1, 10 mM in plate media
  F1 phenotype, PEAMT1 dsRNA: Fertile adults
C. elegans [2]; [8]
  F1 phenotype, PEAMT1 dsRNA: Fertile adults
C. elegans [3]; P0 Dauer, 10 mM in plate media
  F1 phenotype, PEAMT2 dsRNA: Sterility
C. elegans [3]; P0 L1, 10 mM in plate media
  F1 phenotype, PEAMT2 dsRNA: Sterility
C. elegans [3]; [8]
  F1 phenotype, PEAMT2 dsRNA: L1/L2 arrest/lethality
C. elegans [3]
  rescue of PEAMT2 RNAi phenotype: not
[4]; 1 mM SAM, 0.05-10 mM DME, read-out: Km of DME for DIV3202H+ (PEAMT2H+; intact HIS tag)
  Km: 1.39 ± 0.26 µM

## CNCCO [MME, monomethylethanolamine]
C. elegans [2]
  rescue of PEAMT1 mutants (RNAi-generated): rescued
  suppression of PEAMT1 larval lethal RNAi phenotype: suppressed
C. elegans [2]; [8]
  F1 phenotype, PEAMT1 dsRNA: Fertile adults
C. elegans [3]; [8]
  F1 phenotype, PEAMT2 dsRNA: L1/L2 arrest/lethality
C. elegans [3]
  rescue of PEAMT2 RNAi phenotype: not
[4]; 1 mM SAM, 0.15-20 mM MME, read-out: Km of MME for DIV3202H+ (PEAMT2H+; intact HIS tag)
  Km: 2.1 ± 0.97 µM

## OCCNc1ccccc1 [N-(2-hydroxyethyl)aniline]
C. elegans [1]; 10 mM
  F1 PHENOTYPE: L1/L2 arrest/lethality
C. elegans [1]
  nematicidal activity against C. elegans: showed nematicidal activity

## CCCCCC[C@@H](O)C/C=C\CCCCCCCC(=O)O [Ricinoleic acid]
[5]
  effect on water and electrolyte absorption: inhibitory effect
[6]
  cytotoxicity: cytotoxic

## C[S+](CC[C@H](N)C(=O)O)C[C@H]1O[C@@H](n2cnc3c(N)ncnc32)[C@H](O)[C@@H]1O (stereo partly drawn) [S-adenosyl-L-methionine]
[7]; read-out: Km of S-adenosyl-L-methionine for DIV3441H+ (PEAMT1H+; intact HIS tag)
  Km: 62.5 ± 9.68 µM
[7]; read-out: Km of S-adenosyl-L-methionine for DIV3441H− (PEAMT1H−; cleaved HIS tag)
  Km: 146 ± 31.1 µM
[4]; 10 mM DME, 0.004-3 mM SAM, read-out: Km of S-adenosyl-L-methionine for DIV3202H+ (PEAMT2H+; intact HIS tag)
  Km: 167 ± 34.6 µM
[4]; 30 mM MME, 0.004-3 mM SAM, read-out: Km of S-adenosyl-L-methionine for DIV3202H+ (PEAMT2H+; intact HIS tag)
  Km: 163 ± 42.4 µM

## NCCO [ethanolamine (EA), ethanolamine]
C. elegans [2]; P0 L4, 10 mM in plate media
  F1 phenotype, PEAMT1 dsRNA: L1/L2 arrest/lethality
C. elegans [2]
  suppression of PEAMT1 larval lethal RNAi phenotype: not
C. elegans [3]; P0 L4, 10 mM in plate media
  F1 phenotype, PEAMT2 dsRNA: L1/L2 arrest/lethality
C. elegans [3]
  rescue of PEAMT2 RNAi phenotype: not

## CCCCCC[C@@H](O)C/C=C\CCCCCCCC(=O)OC [methyl ester of ricinoleic acid]
[5]
  effect on water and electrolyte absorption: ineffective
